The record followed here is PubChem BioAssay (NCI).

Test systems include CAKI-1 renal; RXF 393 renal; SW-620 colon; EKVX NSCLC; MOLT-4 leukemia; SNB-19 CNS; HCC-2998 colon; UACC-257 melanoma; IGROV1 ovarian; NCI/ADR-RES ovarian; NCI-H460 lung; SK-OV-3 ovarian; HOP-92 NSCLC; MCF7 breast; SF-539 CNS; 786-0 renal; MDA-MB-435; ACHN renal.
What all share (experiment): growth of human tumour cells (NCI), 48 h

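Following 48 hours of exposure in 96-well plates, responses at five concentrations were used to interpolate endpoints linearly. TGI: concentration producing complete growth inhibition.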

Regarding `C=C1C(=O)O[C@@H]2[C@H]3O[C@]3(C)CCC=C(C)CC[C@@H]12`, the TGI in the assay on CAKI-1 renal came to 22.5 µM; in the assay on RXF 393 renal, 27.4 µM; in the assay with SW-620 colon, 34.5 µM; with EKVX NSCLC, 39.2 µM; in the assay on MOLT-4 leukemia it was 92 µM; in the assay on SNB-19 CNS, 163 µM. Moreover, the TGI in the assay with HCC-2998 colon was found to be 56.1 µM; in the assay on UACC-257 melanoma, 34.9 µM; with IGROV1 ovarian, 52.4 µM; in the assay with NCI/ADR-RES ovarian, 45.3 µM; in the assay with NCI-H460 lung, 56.4 µM; in the assay on SK-OV-3 ovarian, 131 µM. The TGI in the assay with HOP-92 NSCLC came out at 26.5 µM; with MCF7 breast, 47.4 µM; with SF-539 CNS, 44.6 µM.

Regarding `CSC1=N/C(=C\c2ccc(C)cc2)C(=O)N1CN1CCOCC1`, the TGI in the assay with SW-620 colon, in the assay on EKVX NSCLC, with 786-0 renal, in the assay with MOLT-4 leukemia, in the assay with SNB-19 CNS and in the assay on MDA-MB-435 was over 100 µM in each case. The TGI in the assay with IGROV1 ovarian, in the assay with NCI/ADR-RES ovarian, in the assay with ACHN renal, in the assay with SK-OV-3 ovarian, in the assay on HOP-92 NSCLC and in the assay on MCF7 breast was over 100 µM each time.

Turning to `C=C[C@@H]1OC(=O)O[C@H]1CO`, the TGI in the assay on SW-620 colon, in the assay on EKVX NSCLC, with 786-0 renal, with MOLT-4 leukemia, in the assay on SNB-19 CNS and in the assay on MDA-MB-435 was over 100 µM throughout. For the same compound, the TGI in the assay on UACC-257 melanoma, in the assay on IGROV1 ovarian, in the assay on NCI/ADR-RES ovarian, in the assay with ACHN renal, with SK-OV-3 ovarian and with MCF7 breast was over 100 µM in each case.

On to `CCCCCC(CN1CCOCC1)C(=O)/C=C/c1ccccc1` (stereo not drawn), for which the TGI came out at 3.47 µM in the assay with RXF 393 renal; 3.33 µM in the assay on SW-620 colon; 22.5 µM with EKVX NSCLC; 3.14 µM in the assay with 786-0 renal; 4.61 µM in the assay with MOLT-4 leukemia; 13.2 µM in the assay with SNB-19 CNS. Also, the TGI is 4.46 µM in the assay with HCC-2998 colon; 7.83 µM in the assay on UACC-257 melanoma; 11.1 µM with NCI-H460 lung; 11.8 µM with SK-OV-3 ovarian; 8.54 µM in the assay on HOP-92 NSCLC; 4.71 µM with SF-539 CNS.

As to `CN(C)c1ccc(-c2cc(=O)c3ccccc3[nH]2)cc1`, the TGI in the assay on RXF 393 renal, in the assay on SW-620 colon, with EKVX NSCLC, in the assay on 786-0 renal, with MOLT-4 leukemia and with SNB-19 CNS was over 100 µM in each case. Also, the TGI with HCC-2998 colon, in the assay on UACC-257 melanoma, in the assay on IGROV1 ovarian, with NCI-H460 lung, with ACHN renal and in the assay with SF-539 CNS was over 100 µM throughout.

On to `O=C1C=CC(=O)c2c1ccc1c3ccccc3n(-c3ccccn3)c21`, for which the TGI was 43.4 µM in the assay on EKVX NSCLC; 28.5 µM in the assay with 786-0 renal; 84.5 µM with MOLT-4 leukemia; over 100 µM in the assay with HCC-2998 colon; 37.3 µM with UACC-257 melanoma; over 100 µM with NCI-H460 lung. In addition, the TGI with ACHN renal was 35.6 µM; in the assay with SK-OV-3 ovarian it was over 100 µM; in the assay with HOP-92 NSCLC, 29.9 µM; in the assay on SF-539 CNS it was 68.2 µM.

As for `NC(=S)/N=C/c1c(O)c2ccccc2oc1=O`, the TGI in the assay on CAKI-1 renal was 77.9 µM; in the assay with RXF 393 renal, 86.4 µM; in the assay with SW-620 colon, over 100 µM; with EKVX NSCLC, over 100 µM; in the assay with 786-0 renal, over 100 µM; in the assay on MOLT-4 leukemia it was over 100 µM. The TGI with SNB-19 CNS, in the assay with HCC-2998 colon, in the assay with UACC-257 melanoma, in the assay with IGROV1 ovarian, with NCI-H460 lung and in the assay with ACHN renal was over 100 µM throughout. Moreover, the TGI in the assay with SK-OV-3 ovarian, in the assay with HOP-92 NSCLC and in the assay with SF-539 CNS was over 100 µM each time.

In the case of `C=CC1(C)CCC(C(C)C(=O)C(C=C(C)C)OC(C)=O)C12C(=O)Oc1ccccc1C2=O` (stereo not drawn), the TGI in the assay with RXF 393 renal was over 100 µM; in the assay with SW-620 colon, over 100 µM; in the assay on EKVX NSCLC, over 100 µM; with 786-0 renal it was over 100 µM; in the assay with MOLT-4 leukemia, 78.7 µM; in the assay with SNB-19 CNS, over 100 µM. In addition, the TGI in the assay on HCC-2998 colon, in the assay with UACC-257 melanoma, in the assay with IGROV1 ovarian, in the assay on NCI-H460 lung, in the assay with ACHN renal and in the assay with SK-OV-3 ovarian was over 100 µM throughout. Moreover, the TGI with HOP-92 NSCLC and with SF-539 CNS was over 100 µM in each case.

In the case of `CC1=C2C(O)C(C(C)C(=O)NCC(C)C)CCC2(C)C=CC1=O` (stereo not drawn), the TGI with CAKI-1 renal, with RXF 393 renal, in the assay on SW-620 colon, in the assay with EKVX NSCLC, in the assay on MOLT-4 leukemia and with SNB-19 CNS was over 100 µM throughout. In addition, the TGI in the assay with HCC-2998 colon, in the assay with UACC-257 melanoma, in the assay with IGROV1 ovarian, with NCI/ADR-RES ovarian, in the assay with NCI-H460 lung and in the assay with HOP-92 NSCLC was over 100 µM in each case. Also, the TGI in the assay on MCF7 breast and in the assay on SF-539 CNS was over 100 µM throughout.

With `Cc1cc(-c2ccc(C(=O)O)[nH]2)on1`, the TGI with CAKI-1 renal, in the assay with RXF 393 renal, in the assay with SW-620 colon, with EKVX NSCLC, in the assay with 786-0 renal and in the assay with MOLT-4 leukemia was over 100 µM each time. For the same compound, the TGI with SNB-19 CNS was over 100 µM; in the assay with MDA-MB-435, over 100 µM; in the assay on HCC-2998 colon, over 100 µM; with UACC-257 melanoma it was over 100 µM; in the assay on IGROV1 ovarian, over 100 µM; in the assay on NCI/ADR-RES ovarian, 75.9 µM. Besides, the TGI in the assay on NCI-H460 lung, with ACHN renal, in the assay on SK-OV-3 ovarian, in the assay with HOP-92 NSCLC and in the assay with MCF7 breast was over 100 µM each time.

Consider `CCOC(=O)CC(=O)NC1CC2CCC1(C)C2(C)C` (stereo not drawn), for which the TGI in the assay with CAKI-1 renal, with RXF 393 renal, in the assay on SW-620 colon, in the assay on EKVX NSCLC, in the assay on 786-0 renal and in the assay on MOLT-4 leukemia was over 100 µM throughout. Besides, the TGI in the assay with SNB-19 CNS, in the assay on MDA-MB-435, with HCC-2998 colon, in the assay with UACC-257 melanoma, with IGROV1 ovarian and in the assay with NCI/ADR-RES ovarian was over 100 µM throughout. The TGI in the assay on NCI-H460 lung, in the assay on ACHN renal, in the assay on SK-OV-3 ovarian, with MCF7 breast and in the assay with SF-539 CNS was over 100 µM in each case.

Take `O=C(OCCN=C1c2ccccc2CCc2ccccc21)c1cc([N+](=O)[O-])cc([N+](=O)[O-])c1`: the TGI is over 31.6 µM in the assay with CAKI-1 renal; over 31.6 µM with RXF 393 renal; over 31.6 µM with SW-620 colon; over 31.6 µM in the assay with EKVX NSCLC; over 31.6 µM with 786-0 renal; 7.09 µM in the assay with MOLT-4 leukemia. Moreover, the TGI in the assay with SNB-19 CNS, in the assay on MDA-MB-435, in the assay with UACC-257 melanoma, in the assay on IGROV1 ovarian, in the assay on NCI/ADR-RES ovarian and in the assay on NCI-H460 lung was over 31.6 µM throughout. Besides, the TGI was over 31.6 µM in the assay with ACHN renal; over 100 µM with SK-OV-3 ovarian; over 31.6 µM in the assay with HOP-92 NSCLC; over 31.6 µM with MCF7 breast; over 31.6 µM in the assay on SF-539 CNS.

For `CC(=O)/C(C=Nc1c(C)n(C)n(-c2ccccc2)c1=O)=C(/C)O`, the TGI with CAKI-1 renal, with RXF 393 renal, in the assay with SW-620 colon, in the assay with EKVX NSCLC, in the assay with 786-0 renal and in the assay with MOLT-4 leukemia was over 100 µM in each case. Besides, the TGI with SNB-19 CNS, in the assay with MDA-MB-435, in the assay on HCC-2998 colon, in the assay on UACC-257 melanoma, in the assay on IGROV1 ovarian and with NCI/ADR-RES ovarian was over 100 µM in each case. Besides, the TGI in the assay with ACHN renal, with SK-OV-3 ovarian, in the assay on HOP-92 NSCLC, in the assay with MCF7 breast and with SF-539 CNS was over 100 µM in each case.

On to `CCN(CC)CCn1c(C(C)(C)C)nc2ccccc21`, for which the TGI in the assay with CAKI-1 renal, in the assay with RXF 393 renal, with SW-620 colon, with EKVX NSCLC, in the assay with 786-0 renal and in the assay with MOLT-4 leukemia was over 100 µM in each case. For the same compound, the TGI in the assay on SNB-19 CNS, in the assay on HCC-2998 colon, in the assay with UACC-257 melanoma, with IGROV1 ovarian, in the assay on NCI/ADR-RES ovarian and in the assay on NCI-H460 lung was over 100 µM in each case. For the same compound, the TGI with ACHN renal, in the assay on SK-OV-3 ovarian, in the assay on HOP-92 NSCLC, with MCF7 breast and in the assay on SF-539 CNS was over 100 µM throughout.

Consider `Cc1cc2nc3n[nH]c(N)c3nc2cc1C`, for which the TGI in the assay on CAKI-1 renal, in the assay with RXF 393 renal, in the assay on SW-620 colon, in the assay with EKVX NSCLC, with 786-0 renal and in the assay on MOLT-4 leukemia was over 100 µM in each case. In addition, the TGI in the assay with SNB-19 CNS, in the assay on MDA-MB-435, with HCC-2998 colon, in the assay with UACC-257 melanoma, in the assay on IGROV1 ovarian and with NCI/ADR-RES ovarian was over 100 µM throughout. The TGI in the assay with NCI-H460 lung, with ACHN renal, in the assay on SK-OV-3 ovarian, in the assay with HOP-92 NSCLC and in the assay on MCF7 breast was over 100 µM each time.
